Test results reported in ChEMBL document CHEMBL1201862, “PubChem BioAssay data set” (2004).
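48-hour exposure; five concentrations; linearly interpolated endpoints. GI50: concentration for 50% inhibition of growth.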 Calls of active or inactive are those of the source. Rule as the data show it: active = GI50 up to about 1.1 µM and inactive = higher.

Legend:
Test in all cases: NCI tumour cell line growth inhibition, 48 h
BT-549 = system: BT-549
CAKI-1 = system: CAKI-1
CCRF-CEM = system: CCRF-CEM
EKVX = system: EKVX
HCT-15 = system: HCT-15
HL-60 = system: HL-60
Hs-578T = system: Hs-578T
KM12 = system: KM12
LOX IMVI = system: LOX IMVI
NCI-H522 = system: NCI-H522
NCI/ADR-RES = system: NCI/ADR-RES
RXF 393 = system: RXF 393
SNB-75 = system: SNB-75
SR = system: SR
SW-620 = system: SW-620
UACC-62 = system: UACC-62
UO-31 = system: UO-31
MDA-MB-231 = system: MDA-MB-231
OVCAR-4 = system: OVCAR-4
TK-10 = system: TK-10

SMILES | GI50 (BT-549) | GI50 (CAKI-1) | GI50 (CCRF-CEM) | GI50 (EKVX) | GI50 (HCT-15) [µM] | GI50 (HL-60) | GI50 (Hs-578T) | GI50 (KM12) | GI50 (LOX IMVI) | GI50 (NCI-H522) | GI50 (NCI/ADR-RES) | GI50 (RXF 393) | GI50 (SNB-75) | GI50 (SR) | GI50 (SW-620) | GI50 (UACC-62) | GI50 (UO-31) | GI50 (MDA-MB-231) | GI50 (OVCAR-4) | GI50 (TK-10)
CN(C)c1ccc(C2C(Cl)C(=O)N2NC(=O)c2c(Cl)c(Cl)c(Cl)c(Cl)c2-c2nc3ccccc3[nH]2)cc1 (centres undefined) | 13.6 µM (inactive) | 15.6 µM (inactive) | 3.36 µM (inactive) | 18.3 µM (inactive) | 12.9 | 3.3 µM (inactive) | 33.3 µM (inactive) | 17.9 µM (inactive) | 7.4 µM (inactive) | 2.79 µM (inactive) | 21.6 µM (inactive) | 2.48 µM (inactive) | 15.6 µM (inactive) | 0.685 µM (active) | 4.29 µM (inactive) | 12.7 µM (inactive) | 19.4 µM (inactive) | – | – | –
COC(=O)C1CCC(=S)N1C(C)=O (centres undefined) | > 100 µM (inactive) | > 100 µM (inactive) | – | > 100 µM (inactive) | > 100 | – | > 100 µM (inactive) | > 100 µM (inactive) | – | > 100 µM (inactive) | > 100 µM (inactive) | > 100 µM (inactive) | > 100 µM (inactive) | – | > 100 µM (inactive) | > 100 µM (inactive) | > 100 µM (inactive) | > 100 µM (inactive) | > 100 µM (inactive) | > 100 µM (inactive)
COc1ccc(C2=Nn3c(nnc3-c3ccccc3)S/C2=C\c2ccc(-c3ccc([N+](=O)[O-])cc3)o2)cc1 | 26.2 µM (inactive) | 51.2 µM (inactive) | 5.7 µM (inactive) | 50.9 µM (inactive) | 16.5 | 14.5 µM (inactive) | 33.7 µM (inactive) | 23.2 µM (inactive) | 25 µM (inactive) | 12.8 µM (inactive) | 25.2 µM (inactive) | – | – | 9.62 µM (inactive) | 24.2 µM (inactive) | 48.3 µM (inactive) | 36.4 µM (inactive) | – | 30 µM (inactive) | –
O=[N+]([O-])c1cc2c(cc1/C=N/n1c(CO)nc3ccccc31)OCO2 | > 100 µM (inactive) | > 100 µM (inactive) | > 100 µM (inactive) | > 100 µM (inactive) | > 100 | > 100 µM (inactive) | > 100 µM (inactive) | > 100 µM (inactive) | > 100 µM (inactive) | – | > 100 µM (inactive) | > 100 µM (inactive) | > 100 µM (inactive) | – | > 100 µM (inactive) | > 100 µM (inactive) | > 100 µM (inactive) | > 100 µM (inactive) | > 100 µM (inactive) | > 100 µM (inactive)
CCCCN(CCCC)C1(c2cc3ccccc3s2)CCCCC1.[O-][Cl+3]([O-])([O-])O | 19.9 µM (inactive) | 18.7 µM (inactive) | 12.1 µM (inactive) | 21.1 µM (inactive) | 15.5 | 17.7 µM (inactive) | – | 16 µM (inactive) | 13.9 µM (inactive) | 12.6 µM (inactive) | 17.7 µM (inactive) | 16.6 µM (inactive) | 16.8 µM (inactive) | 16.3 µM (inactive) | 15 µM (inactive) | 15.6 µM (inactive) | 18.6 µM (inactive) | 15.9 µM (inactive) | 15.4 µM (inactive) | 17.3 µM (inactive)
O=C(/C=C/c1cccs1)c1ccccc1Cl | – | 10.6 µM (inactive) | 8.71 µM (inactive) | 15.1 µM (inactive) | 10.6 | 5.81 µM (inactive) | 14.1 µM (inactive) | 7.31 µM (inactive) | 12.4 µM (inactive) | 2.77 µM (inactive) | 15 µM (inactive) | 7.24 µM (inactive) | 13.4 µM (inactive) | 4.2 µM (inactive) | 14.5 µM (inactive) | 13.3 µM (inactive) | 0.615 µM (active) | 19.2 µM (inactive) | 6.31 µM (inactive) | 16.4 µM (inactive)
CC(=O)N1CC(=O)N2C(=O)/C(=C/c3ccc(Cl)cc3)N=C12 | > 100 µM (inactive) | > 100 µM (inactive) | 45 µM (inactive) | > 100 µM (inactive) | > 100 | 27.7 µM (inactive) | 30.9 µM (inactive) | > 100 µM (inactive) | > 100 µM (inactive) | – | > 100 µM (inactive) | > 100 µM (inactive) | > 100 µM (inactive) | – | > 100 µM (inactive) | > 100 µM (inactive) | > 100 µM (inactive) | > 100 µM (inactive) | > 100 µM (inactive) | > 100 µM (inactive)
O=C(NCCO)Nc1c(C(F)(F)F)cc(-c2ccccc2)[nH]c1=O | > 100 µM (inactive) | > 100 µM (inactive) | > 100 µM (inactive) | > 100 µM (inactive) | > 100 | 19.8 µM (inactive) | – | > 100 µM (inactive) | > 100 µM (inactive) | – | > 100 µM (inactive) | > 100 µM (inactive) | – | – | > 100 µM (inactive) | > 100 µM (inactive) | > 100 µM (inactive) | > 100 µM (inactive) | > 100 µM (inactive) | > 100 µM (inactive)
